Structures can show the parent of a compound that is named as a salt.
How the values were obtained:
interferon (α) = assay: Cytokine induction in human cells: interferon (α) by ELISA; type: cell-based; conditions: Homo sapiens, PBMC, human PBMCs, 18 to 24 hours incubation, ELISA of culture supernatant; read-out: Lowest Effective Concentration (μM) Interferon
[1] = system: tumor necrosis factor (α); assay: Cytokine induction in human cells: tumor necrosis factor (α) by ELISA; type: cell-based; conditions: Homo sapiens, PBMC, human PBMCs, 18 to 24 hours incubation, ELISA of culture supernatant; read-out: Lowest Effective Concentration (μM) Tumor Necrosis Factor

With `COCCc1nc2c(N)nc3ccccc3c2n1CCCCNS(C)(=O)=O` [Example 111] the minimal effective concentration (interferon (α)) was 0.001 µM and the minimal effective concentration [1] was 10 µM.
`COCCc1nc2c(N)nc3ccccc3c2n1CCCCNS(=O)(=O)c1c(C)noc1C` [Example 123] gave a minimal effective concentration (interferon (α)) of 0.0001 µM and a minimal effective concentration [1] of 10 µM.
`CCCCc1nc2c(N)nc3ccccc3c2n1CCCCNS(=O)(=O)c1ccc(F)cc1` [Example 87] showed a minimal effective concentration (interferon (α)) of 0.001 µM and a minimal effective concentration [1] of 1 µM.
Molecule `CCCCc1nc2c(N)nc3ccccc3c2n1CCCCNS(=O)(=O)c1cccc(OC)c1` [Example 104] has a minimal effective concentration (interferon (α)) of 0.01 µM and a minimal effective concentration [1] of over 10 µM.
`COCCc1nc2c(N)nc3ccccc3c2n1CCCCNS(=O)(=O)c1ccc(S(C)(=O)=O)cc1` [Example 161] showed a minimal effective concentration (interferon (α)) of 0.01 µM and a minimal effective concentration [1] of 10 µM.
`CCCCc1nc2c(N)nc3ccccc3c2n1CCCCNS(=O)(=O)c1sc(NC(C)=O)nc1C` [Example 77] gave a minimal effective concentration (interferon (α)) of 0.001 µM and a minimal effective concentration [1] of 1 µM.
Molecule `CCCCc1nc2c(N)nc3ccccc3c2n1CCNS(=O)(=O)c1ccc(Br)cc1` [Example 21] has a minimal effective concentration (interferon (α)) of 1.11 µM and a minimal effective concentration [1] of 30 µM.
For `COCCc1nc2c(N)nc3ccccc3c2n1CCCCNS(=O)(=O)c1ccc(F)cc1` [Example 121], the minimal effective concentration (interferon (α)) was 0.0001 µM and the minimal effective concentration [1] was 10 µM.
In the case of `CCCCc1nc2c(N)nc3ccccc3c2n1CCNS(=O)(=O)c1cccc2ccccc12` [Example 31], the minimal effective concentration (interferon (α)) is reported as 1.11 µM and the minimal effective concentration [1] is reported as over 30 µM.
`COCCc1nc2c(N)nc3c(c2n1CCCCNS(=O)(=O)C[C@@]12CCC(CC1=O)C2(C)C)CCCC3` [Example 212] showed a minimal effective concentration (interferon (α)) of 0.0001 µM and a minimal effective concentration [1] of 0.01 µM.
Work on `CCCCc1nc2c(N)nc3ccccc3c2n1CCNS(=O)(=O)c1c(C)cc(C)cc1C` [Example 26] yielded a minimal effective concentration (interferon (α)) of 10 µM and a minimal effective concentration [1] of over 30 µM.
With `CCCCc1nc2c(N)nc3ccccc3c2n1CCCCNS(=O)(=O)CCCCl` [Example 82] the minimal effective concentration (interferon (α)) was 0.001 µM and the minimal effective concentration [1] was 1 µM.
Molecule `CCCCc1ccc(S(=O)(=O)NCCCCn2c(CCCC)nc3c(N)nc4ccccc4c32)cc1` [Example 98] has a minimal effective concentration (interferon (α)) of 1 µM and a minimal effective concentration [1] of over 10 µM.
`Cc1ccc(S(=O)(=O)NCCCCn2cnc3c(N)nc4c(c32)CCCC4)cc1` [Example 64] was tested, and the minimal effective concentration (interferon (α)) was 3.33 µM and the minimal effective concentration [1] was over 30 µM.
`COCCc1nc2c(N)nc3ccccc3c2n1CCCCNS(=O)(=O)c1ccccc1F` [Example 120] was tested, and the minimal effective concentration (interferon (α)) was 0.0001 µM and the minimal effective concentration [1] was 1 µM.
Molecule `Nc1nc2c(c3c1ncn3CCCCNS(=O)(=O)/C=C/c1ccccc1)CCCC2` [Example 68] has a minimal effective concentration (interferon (α)) of 10 µM and a minimal effective concentration [1] of over 30 µM.
Molecule `CCCS(=O)(=O)NCCCCn1cnc2c(N)nc3c(c21)CCCC3` [Example 54] has a minimal effective concentration (interferon (α)) of 10 µM and a minimal effective concentration [1] of over 30 µM.
`CCCCc1nc2c(N)nc3ccccc3c2n1CCCCNS(=O)(=O)c1ccc(Cl)cc1Cl` [Example 92] was tested, and the minimal effective concentration (interferon (α)) was 0.1 µM and the minimal effective concentration [1] was 10 µM.
In the case of `CCCCS(=O)(=O)NCCCCn1c(CCOC)nc2c(N)nc3ccccc3c21` [Example 117], the minimal effective concentration (interferon (α)) is reported as 0.0001 µM and the minimal effective concentration [1] is reported as 1 µM.
`CCCCc1nc2c(N)nc3ccccc3c2n1CCCCNS(=O)(=O)c1ccc(C)c([N+](=O)[O-])c1` [Example 97] gave a minimal effective concentration (interferon (α)) of 0.1 µM and a minimal effective concentration [1] of 10 µM.
Work on `CCCCc1nc2c(N)nc3ccccc3c2n1CCCCNS(=O)(=O)c1cccc2ccccc12` [Example 41] yielded a minimal effective concentration (interferon (α)) of 0.01 µM and a minimal effective concentration [1] of over 30 µM.
Work on `CCCCCCCCCCCCCCCCS(=O)(=O)NCCCCn1c(CCCC)nc2c(N)nc3ccccc3c21` [Example 75] yielded a minimal effective concentration (interferon (α)) of over 10 µM and a minimal effective concentration [1] of over 10 µM.
Work on `COCCc1nc2c(N)nc3ccccc3c2n1CCCCNS(=O)(=O)c1ccc(C)cc1` [Example 159] yielded a minimal effective concentration (interferon (α)) of 0.0001 µM and a minimal effective concentration [1] of 0.1 µM.
Work on `COCCc1nc2c(N)nc3ccccc3c2n1CCCCNS(=O)(=O)Nc1ccccc1` [Example 224] yielded a minimal effective concentration (interferon (α)) of 0.0001 µM and a minimal effective concentration [1] of 10 µM.
Molecule `CCCCc1nc2c(N)nc3ccccc3c2n1CCCCNS(=O)(=O)c1ccc(OC(F)(F)F)cc1` [Example 85] has a minimal effective concentration (interferon (α)) of 1 µM and a minimal effective concentration [1] of over 10 µM.
`CCCS(=O)(=O)NCCCCn1c(CCOC)nc2c(N)nc3c(c21)CCCC3` [Example 208] was tested, and the minimal effective concentration (interferon (α)) was 0.0001 µM and the minimal effective concentration [1] was 1 µM.
For `CCCCc1nc2c(N)nc3ccccc3c2n1CCNS(=O)(=O)c1ccc(Cl)c(Cl)c1` [Example 22], the minimal effective concentration (interferon (α)) was 0.37 µM and the minimal effective concentration [1] was over 30 µM.
`CCCCc1nc2c(N)nc3c(c2n1CCCCNS(=O)(=O)c1cccs1)CCCC3` [Example 204] gave a minimal effective concentration (interferon (α)) of 0.0001 µM and a minimal effective concentration [1] of 1 µM.
Work on `Nc1nc2c(c3c1ncn3CCCCNS(=O)(=O)Cc1ccccc1)CCCC2` [Example 67] yielded a minimal effective concentration (interferon (α)) of 10 µM and a minimal effective concentration [1] of over 30 µM.
In the case of `CCCCc1nc2c(N)nc3ccccc3c2n1CCCCNS(=O)(=O)CCC` [Example 51], the minimal effective concentration (interferon (α)) is reported as 0.0015 µM and the minimal effective concentration [1] is reported as 0.37 µM.
Molecule `CCCCc1nc2c(N)nc3c(c2n1CCCCNS(C)(=O)=O)CCCC3` [Example 202] has a minimal effective concentration (interferon (α)) of 0.0001 µM and a minimal effective concentration [1] of 1 µM.
`COCCc1nc2c(N)nc3c(c2n1CCCCNS(=O)(=O)N(C)C)CCCC3` [Example 221] gave a minimal effective concentration (interferon (α)) of 0.0001 µM and a minimal effective concentration [1] of 1 µM.
`CCCCc1nc2c(N)nc3ccccc3c2n1CCNS(=O)(=O)c1cccc2cccnc12` [Example 30] showed a minimal effective concentration (interferon (α)) of 1.11 µM and a minimal effective concentration [1] of over 30 µM.
In the case of `CCCS(=O)(=O)NCCCCn1c(CCOC)nc2c(N)nc3ccccc3c21` [Example 116], the minimal effective concentration (interferon (α)) is reported as 0.001 µM and the minimal effective concentration [1] is reported as 1 µM.
Work on `CCCCS(=O)(=O)NCCCCn1cnc2c(N)nc3ccccc3c21` [Example 13, N^1-[4-(4-Amino-1H-imidazo[4,5-c]quinolin-1-y)butyl]-1-butanesulfonamide] yielded a minimal effective concentration (interferon (α)) of 10 µM and a minimal effective concentration [1] of over 30 µM.
In the case of `CCCCc1nc2c(N)nc3c(c2n1CCCCNS(=O)(=O)N(C)C)CCCC3` [Example 220], the minimal effective concentration (interferon (α)) is reported as 0.0001 µM and the minimal effective concentration [1] is reported as 1 µM.
With `CCCCc1nc2c(N)nc3ccccc3c2n1CCCCNS(=O)(=O)c1ccccc1Br` [Example 78] the minimal effective concentration (interferon (α)) was 0.001 µM and the minimal effective concentration [1] was 0.1 µM.
`CCCCc1nc2c(N)nc3ccccc3c2n1CCCCNS(=O)(=O)c1ccc(Cl)c(Cl)c1` [Example 48] gave a minimal effective concentration (interferon (α)) of 0.37 µM and a minimal effective concentration [1] of 10 µM.
For `COCCc1nc2c(N)nc3ccccc3c2n1CCCCNS(=O)(=O)c1ccc(Cl)s1` [Example 131], the minimal effective concentration (interferon (α)) was 0.0001 µM and the minimal effective concentration [1] was 1 µM.
With `CCCCc1nc2c(N)nc3ccccc3c2n1CCCCNS(=O)(=O)c1c(C(C)C)cc(C(C)C)cc1C(C)C` [Example 76] the minimal effective concentration (interferon (α)) was over 10 µM and the minimal effective concentration [1] was over 10 µM.
Molecule `CCCCc1nc2c(N)nc3ccccc3c2n1CCCCNS(=O)(=O)c1cc(F)ccc1C` [Example 106] has a minimal effective concentration (interferon (α)) of 1 µM and a minimal effective concentration [1] of 1 µM.
Molecule `CCCCc1nc2c(N)nc3ccccc3c2n1CCCCNS(=O)(=O)c1ccc([N+](=O)[O-])cc1` [Example 88] has a minimal effective concentration (interferon (α)) of 0.01 µM and a minimal effective concentration [1] of 1 µM.
With `CCOCc1nc2c(N)nc3ccccc3c2n1CCNS(=O)(=O)N(C)C` [Example 217] the minimal effective concentration (interferon (α)) was 1 µM and the minimal effective concentration [1] was over 10 µM.
`CCCCc1nc2c(N)nc3ccccc3c2n1CCCCNS(=O)(=O)C[C@]12CC[C@H](CC1=O)C2(C)C` [Example 73] was tested, and the minimal effective concentration (interferon (α)) was 0.001 µM and the minimal effective concentration [1] was 0.1 µM.
With `CCCCc1nc2c(N)nc3ccccc3c2n1CCCCNS(=O)(=O)C[C@]12CC[C@@H](CC1=O)C2(C)C` [Example 89] the minimal effective concentration (interferon (α)) was 0.001 µM and the minimal effective concentration [1] was 1 µM.
For `COCCc1nc2c(N)nc3ccccc3c2n1CCCCNS(=O)(=O)C[C@@]12CCC(CC1=O)C2(C)C` [Example 200], the minimal effective concentration (interferon (α)) was 0.01 µM and the minimal effective concentration [1] was 0.1 µM.
For `CCCCc1nc2c(N)nc3ccccc3c2n1CCNS(=O)(=O)CCC` [Example 17], the minimal effective concentration (interferon (α)) was 1.11 µM and the minimal effective concentration [1] was 3.33 µM.
Work on `Nc1nc2c(c3c1ncn3CCCCNS(=O)(=O)c1cccc3ccccc13)CCCC2` [Example 70] yielded a minimal effective concentration (interferon (α)) of over 30 µM and a minimal effective concentration [1] of over 30 µM.
Molecule `CCCCc1nc2c(N)nc3ccccc3c2n1CCCCNS(=O)(=O)c1ccc(Cl)s1` [Example 101] has a minimal effective concentration (interferon (α)) of 0.01 µM and a minimal effective concentration [1] of 10 µM.
Molecule `CCCCc1nc2c(N)nc3ccccc3c2n1CCNS(=O)(=O)c1ccccc1` [Example 20] has a minimal effective concentration (interferon (α)) of 0.12 µM and a minimal effective concentration [1] of 3.33 µM.
`COCCc1nc2c(N)nc3ccccc3c2n1CCCCN(C)S(=O)(=O)c1c(C)noc1C` [Example 215, N-[4-(4-Amino-2-(2-methoxyethyl)-1H-imidazo[4,5-c]quinolin-1-yl)butyl]-N-methyl-3,5-dimethylisooxazolo-4-sulfonamide Trifluoroacetate] gave a minimal effective concentration (interferon (α)) of 0.01 µM and a minimal effective concentration [1] of 1 µM.
For `CCCCc1nc2c(N)nc3ccccc3c2n1CCNS(=O)(=O)c1ccc2ccccc2c1` [Example 32], the minimal effective concentration (interferon (α)) was 1.11 µM and the minimal effective concentration [1] was over 30 µM.
Molecule `CCCCc1nc2c(N)nc3ccccc3c2n1CCCCNS(=O)(=O)c1c(C)noc1C` [Example 94] has a minimal effective concentration (interferon (α)) of 0.001 µM and a minimal effective concentration [1] of 1 µM.
Molecule `CN(C)c1cccc2c(S(=O)(=O)NCCCCn3cnc4c(N)nc5c(c43)CCCC5)cccc12` [Example 71] has a minimal effective concentration (interferon (α)) of over 30 µM and a minimal effective concentration [1] of 30 µM.
`COCCc1nc2c(N)nc3ccccc3c2n1CCCCNS(=O)(=O)c1cccc(F)c1` [Example 122] gave a minimal effective concentration (interferon (α)) of 0.0001 µM and a minimal effective concentration [1] of 1 µM.
With `CCCCc1nc2c(N)nc3c(c2n1CCCCNS(=O)(=O)Cc1ccccc1)CCCC3` [Example 205] the minimal effective concentration (interferon (α)) was 0.0001 µM and the minimal effective concentration [1] was 1 µM.
`CCCCc1nc2c(N)nc3ccccc3c2n1CCCCNS(=O)(=O)c1ccc(OC)cc1` [Example 37] was tested, and the minimal effective concentration (interferon (α)) was 0.01 µM and the minimal effective concentration [1] was 1.11 µM.

Source: patent publication US6825350B2, “Sulfonamide and sulfamide substituted imidazoquinolines and methods for the treatment of periodontal disease using these and other immune response modifiers” (3M Innovative Properties Company, priority 1999, dated 2004)
